Structures can show the parent of a compound that is named as a salt.
Key:
Type in all cases: biochemical
DPP-IV = molecular target: T1, DPP-IV (Homo sapiens, UniProt P27487); test: Caco-2 DPP-IV Assay (inhibition of DPP-IV activity from human colonic carcinoma cell extracts); settings: Caco-2 cell extract; substrate H-Alanine-Proline-pNA; pH 7.4; room temperature, 10 minutes
T1 construct: DPP-IV activity from human colonic carcinoma cell extracts; endogenous in cells; host or cells: Caco-2 (ATCC HTB 37), differentiated to induce DPP-IV expression; nonidet-P40 extract
Text: As indicated above, all of the compounds of formula I, and their corresponding pharmaceutically acceptable acid addition salts, are useful in inhibiting DPP-IV. […] The human colonic carcinoma cell line Caco-2 was obtained from the American Type Culture Collection (ATCC HTB 37). Differentiation of the cells to induce DPP-IV expression was accomplished as described by Reisher, et al. in an article entitled "Increased expression of . . . intestinal cell line Caco-2" in Proc. Natl. Acad. Sci., Vol. 90, pgs. 5757-5761 (1993). Cell extract is prepared from cells solubilized in 10 mM Tris-HCl, 0.15 M NaCl, 0.04 t.i.u. aprotinin, 0.5% nonidet-P40, pH 8.0, which is centrifuged at 35,000 g for 30 min. at 4° C. to remove cell debris. The assay is conducted by adding […] solubilized Caco-2 protein, diluted to a final volume of 125 mL in assay buffer (25 mM Tris-HCl pH 7.4, 140 mM NaCl, 10 mM KCl, 1% bovine serum albumin) to microtiter plate wells. The reaction is initiated by adding 25 mL of 1 mM substrate (H-Alanine-Proline-pNA; pNA is p-nitroaniline). The reaction is run at room temperature for 10 minutes after which time a 19 mL volume of 25% glacial acetic acid is added to stop the reaction. Test compounds are typically added as 30 mL additions and the assay buffer volume is reduced to 95 mL. A standard curve of free p-nitroaniline is generated using […] solutions of free pNA in assay buffer. The curve generated is linear and is used for interpolation of substrate consumption (catalytic activity in nmoles substrate cleaved/min). The endpoint is determined by measuring absorbance at 405 nm in a Molecular Devices UV Max microtiter plate reader. The potency of the test compounds as DPP-IV inhibitors, expressed as IC50, is calculated from 8-point, dose-response curves using a 4-parameter logistic function.

human plasma DPP-IV = molecular target: T2, human plasma DPP-IV (Homo sapiens, UniProt P27487); test: Inhibition of DPP-IV activity in human plasma; settings: substrate H-Glycine-Proline-AMC, pH 7.8, room temperature, 20 min
T2 construct: DPP-IV activity in human and rat plasma; from tissue; host or cells: human plasma
Experimental: (§1) 192-197 (1992). Briefly, five […] are added to 96-well flat-bottom mictotiter plates (Falcon), followed by the addition of 5 mL of 80 mM MgCl2 in incubation buffer (25 mM HEPES, 140 mM NaCl, 1% RIA-grade BSA, pH 7.8). After a 5 min. incubation at room temperature, the reaction is initiated by the addition of 10 mL of incubation buffer containing 0.1 mM substrate (H-Glycine-Proline-AMC; AMC is 7-amino-4-methylcoumarin). The plates are covered with aluminum foil (or kept in the dark,) and incubated at room temperature for 20 min. After the 20 min. reaction, fluorescence is measured using a CytoFluor 2350 fluorimeter (Excitation 380 nm Emission 460 nm; sensitivity setting 4). Test compounds are typically added as 2 mL additions and the assay buffer volume is reduced to 13 mL. A fluorescence-concentration curve of free AMC is generated using […] solutions of AMC in assay buffer. The curve generated is linear and is used for interpolation of substrate consumption (catalytic activity in nmoles substrate cleaved/min). As with the previous assay, the potency of the test compounds as DPP-IV inhibitors, expressed as IC50, is calculated from 8-point, dose-response curves using a 4 parameter logistic function.

rat plasma DPP-IV = molecular target: T3, rat plasma DPP-IV (Rattus norvegicus, UniProt P14740); test: Inhibition of DPP-IV activity in rat plasma; settings: substrate H-Glycine-Proline-AMC, pH 7.8, room temperature, 20 min
T3 construct: DPP-IV activity in human and rat plasma; from tissue; host or cells: rat plasma
Experimental: as §1

T1 sequence (P27487 whole entry): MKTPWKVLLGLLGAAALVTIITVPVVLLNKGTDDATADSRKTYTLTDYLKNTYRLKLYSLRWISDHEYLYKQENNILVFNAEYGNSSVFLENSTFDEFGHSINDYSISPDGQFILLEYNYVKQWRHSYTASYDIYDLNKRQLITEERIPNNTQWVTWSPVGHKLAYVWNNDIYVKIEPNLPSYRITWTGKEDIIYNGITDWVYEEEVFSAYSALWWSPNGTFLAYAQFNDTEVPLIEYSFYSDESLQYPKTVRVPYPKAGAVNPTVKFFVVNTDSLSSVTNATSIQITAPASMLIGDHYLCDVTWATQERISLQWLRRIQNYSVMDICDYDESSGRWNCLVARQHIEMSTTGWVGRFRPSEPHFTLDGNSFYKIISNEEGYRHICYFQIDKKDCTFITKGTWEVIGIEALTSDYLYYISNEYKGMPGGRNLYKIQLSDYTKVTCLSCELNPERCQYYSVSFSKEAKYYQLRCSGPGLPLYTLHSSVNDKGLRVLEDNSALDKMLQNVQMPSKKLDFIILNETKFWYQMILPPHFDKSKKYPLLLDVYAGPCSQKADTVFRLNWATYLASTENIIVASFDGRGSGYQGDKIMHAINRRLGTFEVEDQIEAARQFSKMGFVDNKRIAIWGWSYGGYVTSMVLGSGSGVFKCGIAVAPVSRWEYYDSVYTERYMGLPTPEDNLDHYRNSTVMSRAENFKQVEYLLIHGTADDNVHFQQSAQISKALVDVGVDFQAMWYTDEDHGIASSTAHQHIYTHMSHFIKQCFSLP
T2 sequence (P27487 39-766 limits assumed): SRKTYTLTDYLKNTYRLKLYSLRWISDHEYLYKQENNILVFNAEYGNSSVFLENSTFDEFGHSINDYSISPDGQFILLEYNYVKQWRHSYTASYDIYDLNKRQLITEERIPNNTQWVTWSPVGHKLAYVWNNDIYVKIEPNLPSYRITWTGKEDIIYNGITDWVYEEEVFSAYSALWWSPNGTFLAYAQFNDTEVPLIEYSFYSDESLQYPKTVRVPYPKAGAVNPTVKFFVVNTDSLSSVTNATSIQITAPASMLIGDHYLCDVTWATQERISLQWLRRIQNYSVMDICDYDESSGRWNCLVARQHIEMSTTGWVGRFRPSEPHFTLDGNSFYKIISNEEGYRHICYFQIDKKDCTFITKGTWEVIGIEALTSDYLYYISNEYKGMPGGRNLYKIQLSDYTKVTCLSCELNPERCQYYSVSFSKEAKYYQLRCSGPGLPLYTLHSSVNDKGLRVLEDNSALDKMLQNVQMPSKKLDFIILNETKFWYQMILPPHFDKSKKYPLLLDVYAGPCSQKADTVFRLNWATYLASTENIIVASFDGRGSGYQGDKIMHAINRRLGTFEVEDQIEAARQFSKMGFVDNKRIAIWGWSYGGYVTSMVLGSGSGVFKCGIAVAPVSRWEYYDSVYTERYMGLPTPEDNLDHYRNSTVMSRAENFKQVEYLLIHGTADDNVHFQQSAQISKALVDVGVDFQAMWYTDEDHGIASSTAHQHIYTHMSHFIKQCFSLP
T3 sequence (P14740 37-767 limits assumed): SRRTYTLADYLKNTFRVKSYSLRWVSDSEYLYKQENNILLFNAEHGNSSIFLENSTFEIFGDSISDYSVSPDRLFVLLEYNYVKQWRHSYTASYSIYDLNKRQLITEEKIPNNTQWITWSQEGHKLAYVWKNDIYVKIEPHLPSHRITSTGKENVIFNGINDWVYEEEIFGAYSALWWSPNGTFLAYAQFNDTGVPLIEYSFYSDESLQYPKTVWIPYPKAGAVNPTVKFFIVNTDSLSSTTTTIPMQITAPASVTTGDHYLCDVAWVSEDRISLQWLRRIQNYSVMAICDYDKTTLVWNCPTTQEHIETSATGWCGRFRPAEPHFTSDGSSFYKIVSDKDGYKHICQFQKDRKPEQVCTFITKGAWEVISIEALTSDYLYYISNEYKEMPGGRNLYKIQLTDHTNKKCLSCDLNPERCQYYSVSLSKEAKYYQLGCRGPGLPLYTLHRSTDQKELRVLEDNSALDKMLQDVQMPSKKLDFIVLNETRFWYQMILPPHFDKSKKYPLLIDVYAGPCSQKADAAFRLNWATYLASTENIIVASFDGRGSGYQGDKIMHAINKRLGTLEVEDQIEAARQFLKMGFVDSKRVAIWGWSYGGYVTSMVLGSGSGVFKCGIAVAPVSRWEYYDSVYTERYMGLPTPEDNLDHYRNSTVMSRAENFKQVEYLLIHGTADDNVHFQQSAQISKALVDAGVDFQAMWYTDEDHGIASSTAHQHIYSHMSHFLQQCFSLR

Compound | IC50 (DPP-IV) | IC50 (human plasma DPP-IV) | IC50 (rat plasma DPP-IV)
COc1cc2c(cc1OC)CC(C(=O)N1CCC[C@H]1C#N)NC2 (single isomer, unassigned; diastereomer b) [Ex. 7, 1-[1,2,3,4-tetrahydro-6,7-dimethoxy-3-isoquinolinyl]carbonyl-2-Pyrrolidinecarbonitrile [Diastereomer B]] | 13 nM | 12 nM | 78 nM
N#C[C@@H]1CCCN1C(=O)[C@@H]1Cc2ccccc2CN1 [Ex. 1, [S-(R*,R*)]-1-(1,2,3,4-tetrahydro-3-isoquinolinyl)carbonyl-2-pyrrolidinecarbonitrile trifluoroacetate] | 7.6 nM | 41 nM | 790 nM
N#C[C@@H]1CCCN1C(=O)[C@@H]1Cc2ccc(O)cc2CN1 [Ex. 2, [S-(R*,R*)]-1-(1,2,3,4-tetrahydro-7-hydroxy-3-isoquinolinyl)carbonyl-2-Pyrrolidinecarbonitrile trifluoroacetate] | 4 nM |  | 
COc1ccc2c(c1)CN[C@H](C(=O)N1CCC[C@H]1C#N)C2 [Ex. 3, [S-(R*,R*)]-1-(1,2,3,4-tetrahydro-7-methoxy-3-isoquinolinyl)carbonyl-2-Pyrrolidinecarbonitrile trifluoroacetate] | 14 nM | 4 nM | 16 nM
N#C[C@@H]1CCCN1C(=O)[C@@H]1Cc2ccc(OCc3ccccc3)cc2CN1 [Ex. 4, [S-(R*,R*)]-1-(1,2,3,4-tetrahydro-7-phenylmethoxy-3-isoquinolinyl)carbonyl-2-Pyrrolidinecarbonitrile trifluoroacetate] | 9 nM | 167 nM | 1300 nM
CCCOc1ccc2c(c1)CN[C@H](C(=O)N1CCC[C@H]1C#N)C2 [Ex. 5, [S-(R*,R*)]-1-(1,2,3,4-tetrahydro-7-propoxy-3-isoquinolinyl)carbonyl-2-Pyrrolidinecarbonitrile trifluoroacetate] | 8 nM | 49 nM | 315 nM
COc1cc2c(cc1OC)CC(C(=O)N1CCC[C@H]1C#N)NC2 (stereo partly drawn) [Ex. 6, [S-(R*,R*)]-1-[1,2,3,4-tetrahydro-6,7-dimethoxy-3-isoquinolinyl]carbonyl-2-Pyrrolidinecarbonitrile] | > 10000 nM |  | 
CCN(CC)CCCOc1ccc2c(c1)CNC(C(=O)N1CCCC1C#N)C2 (stereo not drawn) [Ex. 8, [S-(R*,R*)]-1-[7-(3-diethylamino)propoxy-1,2,3,4-tetrahydro-3-isoquinolinyl]carbonyl-2-Pyrrolidinecarbonitrile] | 10 nM |  | 
CCOCCOCCOc1ccc2c(c1)CN[C@H](C(=O)N1CCC[C@H]1C#N)C2 [Ex. 9, [S-(R*,R*)]-1-[7-[2-(2-ethoxyethoxy)ethoxy]-1,2,3,4-tetrahydro-3-isoquinolinyl]carbonyl-2-Pyrrolidinecarbonitrile trifluoroacetate] | 10 nM |  | 
N#C[C@@H]1CCCN1C(=O)[C@@H]1Cc2ccc(OCC(N)=O)cc2CN1 [Ex. 10, [S-(R*,R*)]-[3-(2-cyano-1-pyrrolidinyl)carbonyl-1,2,3,4-tetrahydro-7-isoquinolinyl]oxy-Acetamide] | 16 nM | 5 nM | 12 nM
N#C[C@@H]1CCCN1C(=O)[C@@H]1Cc2ccc(OCC(=O)O)cc2CN1 [Ex. 11, [S-(R*,R*)]-[3-(2-cyano-1-pyrrolidinyl)carbonyl-1,2,3,4-tetrahydro-7-isoquinolinyl]oxy-Acetic acid] | 10 nM |  | 

From patent US6172081A, “Tetrahydroisoquinoline 3-carboxamide derivatives” (Novartis AG, priority 1999, dated 2001)
